Experimental data published in US20220289698A1, “INHIBITORS OF HUMAN ATGL” (Karl-Franzens-Universität Graz, priority 2019, published 2022).
Where two headings read alike, the source gives them in different places.

Tests used:
human ATGL = biological target: T1, human ATGL (Homo sapiens, UniProt Q96AD5); test: TG hydrolase activity, Expi cell lysates expressing human ATGL + CGI-58, radiolabelled triolein; assay type: biochemical
T1 construct: made in house; host or cells: Expi cells (lysate, not purified)
T1 sequence (Q96AD5 1-504): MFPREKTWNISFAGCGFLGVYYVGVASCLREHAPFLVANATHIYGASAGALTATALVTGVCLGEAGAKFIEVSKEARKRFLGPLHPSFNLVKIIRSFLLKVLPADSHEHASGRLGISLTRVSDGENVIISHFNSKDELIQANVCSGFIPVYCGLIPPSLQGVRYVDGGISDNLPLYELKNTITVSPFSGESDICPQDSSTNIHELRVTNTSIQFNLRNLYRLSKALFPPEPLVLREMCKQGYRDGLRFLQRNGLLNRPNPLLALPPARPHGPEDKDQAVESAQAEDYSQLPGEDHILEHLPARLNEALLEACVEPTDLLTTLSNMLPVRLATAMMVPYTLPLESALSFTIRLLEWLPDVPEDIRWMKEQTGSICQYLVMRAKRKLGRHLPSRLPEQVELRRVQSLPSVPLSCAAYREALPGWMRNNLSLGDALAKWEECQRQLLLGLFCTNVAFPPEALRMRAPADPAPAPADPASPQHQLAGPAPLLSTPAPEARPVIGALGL
Method: (§1) Triglyceride (TG) hydrolase activity was measured as previously described (Schweiger M et al., Methods in Enzymology, 2014, 538:171-93). In brief, TG hydrolase activity was determined by adding recombinant purified CGI-58 to Expi cell lysates expressing human ATGL. For determination of cross-species reactivity Expi lysates expressing ATGL from different model organisms (e.g. mouse, rat, rhesus monkey, goat, etc.) were used. Samples were incubated with DMSO (carrier) or increasing concentrations of ATGL inhibitors dissolved in DMSO. TG substrate was prepared by emulsifying 330 μM radiolabelled triolein (40,000 c.p.m./nmol) and 45 μM phosphatidylcholine/phosphatidylinositol (3:1) in 100 mM potassium phosphate buffer (pH 7.0) by sonication and adjusting to 5% essentially FA-free BSA. TG substrate was added to the reaction mixture and incubated for 1 h at 37° C. in the water bath. The reaction was terminated by adding methanol/chloroform/heptane (10:9:7) and 0.1 M potassium carbonate with 0.1 M boric acid (pH 10.5). After centrifugation at 800 g for 15 min the radioactivity in the upper phase was determined by liquid scintillation counting and the rate of FA hydrolysis was calculated. IC50 values were determined as inhibitor concentration capable of inhibiting TG hydrolase activity by 50% as compared to DMSO control. Samples were measured as duplicates. The determination of IC50 values for human ATGL is illustrated in FIG. 1.

murine ATGL = biological target: T2, murine ATGL (Mus musculus, UniProt Q8BJ56); test: TG hydrolase activity, Expi lysates expressing mouse ATGL + CGI-58, radiolabelled triolein; assay type: biochemical; settings: 50 μM compound; Example 237; read-out: Inhibition of murine ATGL at 50 μM − mean [%]
T2 construct: made in house; host or cells: Expi cells (lysate)
T2 sequence (Q8BJ56 1-486): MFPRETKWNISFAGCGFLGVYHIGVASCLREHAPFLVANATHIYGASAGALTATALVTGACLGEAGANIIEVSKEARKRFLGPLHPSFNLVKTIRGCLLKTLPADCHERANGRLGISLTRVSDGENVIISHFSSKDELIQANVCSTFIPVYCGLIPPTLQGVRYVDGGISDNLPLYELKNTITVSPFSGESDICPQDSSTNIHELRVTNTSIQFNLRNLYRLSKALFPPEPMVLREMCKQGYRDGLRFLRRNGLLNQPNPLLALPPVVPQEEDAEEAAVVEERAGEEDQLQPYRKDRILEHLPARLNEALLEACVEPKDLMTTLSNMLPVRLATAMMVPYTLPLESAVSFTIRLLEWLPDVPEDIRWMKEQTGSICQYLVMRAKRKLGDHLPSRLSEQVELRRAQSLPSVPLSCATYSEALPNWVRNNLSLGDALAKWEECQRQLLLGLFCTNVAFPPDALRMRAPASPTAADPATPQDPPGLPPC
Method: as §1
Lysates from Expi cells overexpressing ATGL from mouse (Mus musculus) were incubated with recombinant purified ATGL co-activator CGI-58 and ATGL inhibitors at 50 μM. Subsequently, substrate containing radiolabeled triolein was added and liberated FA were extracted and quantified by liquid scintillation. Inhibitors were dissolved in DMSO which was used as control. Samples were measured in triplicates.

[1] = Example 237, read-out: Inhibition of human ATGL − IC50
[2] = Example 238, read-out: Inhibition of human ATGL IC50

| Structure (SMILES) | melting point | further results |
| --- | --- | --- |
| CCOC(=O)c1csc(-c2ccc(O)cc2)n1 [Example 188, Ethyl 2-(4-hydroxyphenyl)thiazole-4-carboxylate] | 171 °C |  |
| CCOc1ccc(-c2cc(C)cc(C(=O)OC(C)C)n2)cc1 [Example 20] | 85 to 88 °C | IC50 (human ATGL; values of text and figure legend, read-out: IC50 on human ATGL (hATGL)): 4 µM |
| COc1ccc(C#Cc2ccc(-c3cccc(C(=O)OC(C)C)n3)cc2)cc1 [Example 92] | 152 to 155 °C | IC50 (human ATGL; [1]): 3 µM |
| CCOc1ccc(-c2cccc(C(=O)OCCc3ccco3)n2)cc1 [Example 191, 2-(Furan-2-yl)ethyl 6-(4-ethoxyphenyl)picolinate] | 82 to 84 °C |  |
| CCOc1ccc(-c2cccc(C(=O)OCc3ccccc3)n2)cc1 [Example 22] | 80 to 81 °C |  |
| CC(C)COc1ccc(-c2cccc(C(=O)OC(C)C)n2)cc1 [Example 96] | 103 to 107 °C | IC50 (human ATGL; [1]): 10 µM |
| CCOC(=O)c1csc(-c2ccc(C)cc2)n1 [Example 184, Ethyl 2-(p-tolyl)thiazole-4-carboxylate] | 39 to 41 °C |  |
| C#C[C@@H](C)OC(=O)c1cccc(-c2ccc(CCC)cc2)n1 [Example 71] | 112 to 113 °C | IC50 (human ATGL; [1]): 2 µM |
| CCSc1ccc(-c2cccc(C(=O)OC(C)C)n2)cc1 [Example 64] | 93 to 96 °C | IC50 (human ATGL; [1]): 6 µM |
| CSc1ccc(-c2cccc(C(=O)OC(C)C)n2)cc1 [Example 90] | 60 to 61 °C | IC50 (human ATGL; [1]): 3 µM |
| CCOC(=O)c1cccc(-c2ccc(OCc3ccccc3)cc2)n1 [Example 9] | 143 to 145 °C |  |
| CCOC(=O)c1cccc(-c2ccc(-c3ccccn3)cc2)n1 [Example 48] | 130 to 132 °C | IC50 (human ATGL; [1]): 25 µM |
| CCOC(=O)c1cccc(-c2ccc(-c3cccnc3)cc2)n1 [Example 49] | 84 to 104 °C | IC50 (human ATGL; [1]): 20 µM |
| CCOc1ccc(-c2cccc(C(=O)OCCCO)n2)cc1 [Example 5] | 61 to 63 °C |  |
| CCOC(=O)c1cccc(-c2ccccc2)n1 [Example 39] | 42 to 46 °C |  |
| CCOc1ccc(-c2cccc(C(=O)OCC(C)(C)C)n2)cc1 [Example 4] | 89 to 92 °C |  |
| CCOc1ccc(-c2cccc(C(=O)OCc3ccncc3)n2)cc1 [Example 194, Pyridin-4-ylmethyl 6-(4-ethoxyphenyl)picolinate] | 101 to 106 °C |  |
| CCOc1ccc(-c2cccc(C(=O)OC/C=C/c3ccccc3)n2)cc1 [Example 73] | 110 °C | IC50 (human ATGL; [1]): 3 µM |

| Structure (SMILES) | melting point | further results |
| --- | --- | --- |
| CCOc1ccc(-c2cccc(C(=O)OCc3cccnc3)n2)cc1 [Example 193, Pyridin-3-ylmethyl 6-(4-ethoxyphenyl)picolinate] | 107 to 110 °C |  |
| CCOC(=O)c1cccc(-c2ccc(C(F)(F)F)cc2)n1 [Example 81] | 110 to 112 °C |  |
| CCOC(=O)c1cccc(-c2ccc(-c3ccncc3)cc2)n1 [Example 50] | 127 to 131 °C |  |
| CC(C)OC(=O)c1cccc(-c2ccc(C(C)(C)C)cc2)n1 [Example 60] | 104 to 106 °C |  |
| COC(=O)c1cccc(-c2ccc(C(F)(F)F)cc2)n1 [Example 78] | 95 to 96 °C |  |
| CCOc1ccc(-c2cccc(C(=O)OCc3ccccn3)n2)cc1 [Example 192, Pyridin-2-ylmethyl 6-(4-ethoxyphenyl)picolinate] | 124 to 127 °C |  |
| CC(C)OC(=O)c1cccc(C#Cc2ccccc2)n1 [Example 79] | 85 to 86 °C |  |
| CC(C)OC(=O)c1cccc(-c2ccc(N(C)C)cc2)n1 [Example 17] | 134 to 140 °C |  |
| C#C[C@H](C)OC(=O)c1cccc(-c2ccc(CCC)cc2)n1 [Example 72] | 112 to 113 °C |  |
| CCOC(=O)c1csc(-c2ccc(C(F)(F)F)cc2)n1 [Example 183, Ethyl 2-(4-(trifluoromethyl)phenyl)thiazole-4-carboxylate] | 100 °C |  |
| CCOc1ccc(-c2cccc(C(=O)OCCc3ccccc3)n2)cc1 [Example 74] | 80 to 82 °C |  |
| C=CCOC(=O)c1cccc(-c2ccc(C(F)(F)F)cc2)n1 [Example 82] | 79 to 80 °C |  |
| CCOc1ccc(-c2cccc(C(=O)OCCCOC)n2)cc1 [Example 3] | 36 to 38 °C |  |
| CCCCCCOC(=O)c1cccc(-c2ccc(OCC)cc2)n1 [Example 7] | 48 to 51 °C |  |
| CCOC(=O)c1csc(-c2ccc(SCC)cc2)n1 [Example 98, Ethyl 2-(4-(ethylthio)phenyl)thiazole-4-carboxylate] |  | inhibition at 50 µM (murine ATGL): 0%; IC50 (human ATGL; [1]): 12 µM |
| CCOC(=O)c1csc(-c2ccc(C(C)(C)C)cc2)n1 [Example 186, Ethyl 2-(4-(tert-butyl)phenyl)thiazole-4-carboxylate] | 50 to 52 °C |  |
| CC(C)OC(=O)c1cccc(-c2ccc(O)cc2)n1 [Example 10] | 154 to 157 °C |  |

Continued, in another order:

| melting point | Structure (SMILES) | further results |
| --- | --- | --- |
| 109 to 111 °C | CCOc1ccc(-c2cccc(C#N)n2)cc1 [NG-437] |  |
| 120 to 123 °C | CCOc1ccc(-c2ccc(OC(C)=O)c(C(=O)OC)n2)cc1 [NG-477] |  |
| 90 to 91 °C | CCOC(=O)Cc1cccc(-c2ccc(OCC)cc2)n1 [NG-640] |  |
| 51 °C | CCc1ccc(-c2cc(OC)cc(C(=O)OC(C)C)n2)cc1 [Example 205, Isopropyl 6-(4-ethylphenyl)-4-methoxypicolinate] | IC50 (human ATGL; [2]): 3 µM |
| 68 °C | CCC(C)OC(=O)c1cc(OC)cc(-c2ccc(OC(C)C)cc2)n1 (stereo not shown) [Example 202, sec-Butyl 6-(4-Isopropoxyphenyl)-4-methoxypicolinate] | IC50 (human ATGL; [2]): 3 µM |
| 73 to 78 °C | CCOc1ccc(-c2cccc(C(=O)OCCc3cccs3)n2)cc1 [Example 195, 2-(Thiophen-2-yl)ethyl 6-(4-ethoxyphenyl)picolinate] |  |
| 116 to 118 °C | COc1cc(C(=O)OC2CCC2)nc(-c2ccc(OC(C)C)cc2)c1 [Example 203, Cyclobutyl 6-(4-isopropoxyphenyl)-4-methoxypicolinate] | IC50 (human ATGL; [2]): 10 µM |
| 114 to 116 °C | CCOc1ccc(-c2ccc(OC)c(C(=O)OC)n2)cc1 [NG-462] |  |
| 100 to 101 °C | CCOc1ccc(-c2cccc(C(F)(F)F)n2)cc1 [NG-622] |  |
| 80 to 86 °C | CCOc1ccc(-c2cccc(C(C)=O)n2)cc1 [NG-631] |  |
| 73 to 76 °C | CCOc1ccc(-c2cccc(C(=O)OCCc3ccsc3)n2)cc1 [Example 196, 2-(Thiophen-3-yl)ethyl 6-(4-ethoxyphenyl)picolinate] |  |
| 106 to 108 °C | CCOC(=O)c1ccc(-c2ccc(OCC)cc2)nc1 [NG-408] |  |
| 96 to 97 °C | CC(C)OC(=O)c1cccc(-c2ccc(C(F)(F)F)cc2F)n1 [NG-587] |  |
| 75 to 80 °C | CCOc1ccc(-c2cccc(C(=O)OCc3cncs3)n2)cc1 [Example 199, Thiazol-5-ylmethyl 6-(4-ethoxyphenyl)picolinate] |  |
| 74 to 76 °C | CC(C)OC(=O)c1cccc(-c2ccc(Cl)c(Cl)c2)n1 [NG-481] |  |
| 114 to 116 °C | CCOc1ccc(-c2ccc(O)c(C(=O)OC)n2)cc1 [NG-461] |  |
